Laboratory results taken from US20230027059A1, “METHODS AND COMPOSITIONS FOR GENERATING HUMAN MIDBRAIN NEURAL PROGENITOR CELLS” (Trallhead Biosystems Inc., priority 2021, published 2023).

Assays:
[1] = tested on: stage 1 neural stem cells; experiment: Second 12-factor HD-DoE experiment, stage 2: hiPSCs in stage 1 media 3 days, then 96 factor combinations for 3 days, with dynamic profile and factor criticality analysis; type: cell-based, human; details: for FOXA2 expression level in absence of the factor / LMX1A expression level in absence of the factor: stage 2 recipe, second experiment model; for LMX1A expression level in absence of the factor: 4000 with all factors; for factor contribution: negative impact; for impact on expression of GBX2: stage 2, second 12-factor experiment, dynamic profile
Experimental: To test additional factors like FGF8 that is routinely used in midbrain differentiation protocols, we ran another 12-factor experiment consisting of LDN193189, BMP7, A 83-01, Activin A, Takinib, PD0325901, MK2206, FGF8b, AZD3147, MHY1485, GSI-XX and Yhhu 3792. Similar to the previous experiment, hiPSCs were treated with stage 1 media for 3 days and then treated with 96 conditions of combinations of the factors for an additional 3 days. When this model was optimized for maximum expression of FOXA2, BMP7 with factor contribution of 13.7 and MK2206 with 14.2 had the most impact on its expression followed by AZD 3147 with factor contribution of 10.9. […] Another difference was BMP7, which has a negative impact on LMX1A. However, the factor contribution is less than 10. Therefore, to evaluate the effect of interactions between the factors and the optimal condition for the expression of both FOXA2 and LMX1A, we used dynamic profile analysis (FIG. 10). […] To assess the impact of elimination of each validated factor, we used dynamic profile analysis and compared the expression level of genes of interest in absence of each finalized factor while others are present. […] In the stage 2 recipe, each of the six finalized factors were removed while the other five factors were present and the expression levels of FOXA2, LMX1A and GBX2 were assessed, compared to the levels in the presence of all factors. According to the first experiment model, the absence of TTNPB lead to a rise of GBX2 expression, while the value of FOXA2 and LMX1A reduced drastically from 10,000 to 0 and 30,000 to 15,000, respectively. The absence of A 83-01 reduced the expression of FOXA2 from 10,000 to 7000, however, as expected, the value of LMX1A increased from 30,000 to 40,000. […] According to the second experiment model, the absence of BMP7 and MK2206 both reduced the level of FOXA2 while increasing the value of LMX1A, with BMP7 as the main effector that led to 0 expression of FOXA2.

[2] = tested on: stage 1 neural stem cells; experiment: First 12-factor HD-DoE experiment, stage 2: additional 3 days after stage 1, gene expression modeled, with dynamic profile and factor criticality analysis; type: cell-based, human; details: for FOXA2 expression level in absence of the factor / LMX1A expression level in absence of the factor: stage 2 recipe, first experiment model; for FOXA2 expression level in absence of the factor: 10,000 with all factors; for LMX1A expression level in absence of the factor: 30,000 with all factors
Experimental: To develop the recipe for each stage, the impact of agonists and antagonists of multiple signaling pathways (referred to herein as “effectors”) on the expression of two sets of 53 pre-selected genes after a 3-day treatment was tested and modeled. These effectors are small molecules or proteins that are commonly used during stepwise differentiation of stem cells to specific fates. The choice of the effectors to test was based on current literature on neural induction in the midbrain region of the developing brain and differentiation of stem cells to neural progenitors. To test the effectors, experiments with at least 8 factors were designed that can assess the response of cells to 48 or more different combinations of effectors in a range of concentrations. To analyze the models, we focused on expression of genes expressed in the midbrain region, including OTX2, DMBX1, FOXA2, LMX1A, and on the absence of GB X2, which is a hindbrain marker. The impact of each effector on gene expression level is defined by a parameter called factor contribution that is calculated for each effector during the modeling. To further guide the differentiation of midbrain-committed neural stem cells to neural progenitor cells at stage 2, we performed an additional HD-DoE experiment. We thereby obtained additional gene regulatory models that were used for preparation of differentiation protocol. The basis of this was a 12-factor HD-DoE experiment with focus on initiation of differentiation of cells toward midbrain neural progenitor cells for an additional 3 days after termination of stage 1 treatment. Here, we focused on expression of LMX1A and FOXA2 in neural progenitor cells with low to zero expression of GBX2. LMX1A had significant high expression level in the model with value of 47888. Therefore, we used optimization setting for this gene to identify the positive factors. The factors in this experiment included SC79, MK2206, ZM336372, PD0325901, CHIR99021, A 83-01, TTNPB, AGN193109, GW3965, SR9243, Purmorphamine and GSI-XX. […] Therefore, we used dynamic profile analysis to adjust the recipe for optimized expression of both LMX1A and FOXA2 genes and minimum expression of GBX2 (FIG. 7). It was observed that even without addition of Purmorphamine, expression level of FOXA2 was at 5000, therefore inclusion of this effector is not essential, however it can improve expression of FOXA2. […] A 83-01 was another factor with opposite effect on FOXA2 and LMX1A that was included in the final recipe. […] To assess the impact of elimination of each validated factor, we used dynamic profile analysis and compared the expression level of genes of interest in absence of each finalized factor while others are present. […] In the stage 2 recipe, each of the six finalized factors were removed while the other five factors were present and the expression levels of FOXA2, LMX1A and GBX2 were assessed, compared to the levels in the presence of all factors. According to the first experiment model, the absence of TTNPB lead to a rise of GBX2 expression, while the value of FOXA2 and LMX1A reduced drastically from 10,000 to 0 and 30,000 to 15,000, respectively. The absence of A 83-01 reduced the expression of FOXA2 from 10,000 to 7000, however, as expected, the value of LMX1A increased from 30,000 to 40,000. […] According to the second experiment model, the absence of BMP7 and MK2206 both reduced the level of FOXA2 while increasing the value of LMX1A, with BMP7 as the main effector that led to 0 expression of FOXA2.

[3] = tested on: human pluripotent stem cells; experiment: 13-factor HD-DoE experiment, stage 1: 3-day effector treatment, gene expression modeled, with dynamic profile and factor criticality analysis; type: cell-based; details: for LMX1A expression level in absence of the factor / FOXA2 expression level in absence of the factor / DMBX1 expression level in absence of the factor / OTX2 expression level in absence of the factor: stage 1 recipe, other four factors present; for LMX1A expression level in absence of the factor: 300 with all five factors; for FOXA2 expression level in absence of the factor: 600 with all five factors; for DMBX1 expression level in absence of the factor: 3000 with all five factors; for OTX2 expression level in absence of the factor: 12000 with all five factors
From the text: This example utilizes a method of High-Dimensional Design of Experiments (HD-DoE), as previously described in Bukys et al. (2020) Iscience 23:101346. The method employs computerized design geometries to simultaneously test multiple process inputs and offers mathematical modeling of a deep effector/response space. The method allows for finding combinatorial signaling inputs that control a complex process, such as during cell differentiation.
It allows testing of multiple plausible critical process parameters, as such parameters impact output responses, such as gene expression. Because gene expression provides hallmark features of the phenotype of, for example, a human cell, the method can be applied to identify, and understand, which signaling pathways control cell fate. In the current example, the HD-DOE method was applied with the intent to find conditions for induction of midbrain neural progenitor-expressed genes, directly from the pluripotent stem cell state.
To develop the recipe for each stage, the impact of agonists and antagonists of multiple signaling pathways (referred to herein as “effectors”) on the expression of two sets of 53 pre-selected genes after a 3-day treatment was tested and modeled. These effectors are small molecules or proteins that are commonly used during stepwise differentiation of stem cells to specific fates. The choice of the effectors to test was based on current literature on neural induction in the midbrain region of the developing brain and differentiation of stem cells to neural progenitors.
To test the effectors, experiments with at least 8 factors were designed that can assess the response of cells to 48 or more different combinations of effectors in a range of concentrations. To analyze the models, we focused on expression of genes expressed in the midbrain region, including OTX2, DMBX1, FOXA2, LMX1A, and on the absence of GB X2, which is a hindbrain marker. The impact of each effector on gene expression level is defined by a parameter called factor contribution that is calculated for each effector during the modeling.
To identify the recipe of stage 1 of differentiation, cells were treated with various effectors for 3 days and the gene expression of cells was modeled. […] This model consisted of 13 factors including LDN193189, PD173074, BLU9931, Purmorphamine, SC79, MK2206, ZM336372, PD0325901, CHIR99021, XAV939, UCLA-gp130, Tofacitinib and GO 6983.
LDN193189 and CHIR99021 are common in both optimization settings and the rest of the factors except Purmorphamine, have a factor contribution less than 10. Therefore, we focused on impact of addition of Purmorphamine to the original 4 effectors.
This assessment was done through dynamic profile analysis of the model with focus on expression of OTX2, DMBX1, LMX1A and FOXA2 (FIG. 3).
To assess the impact of elimination of each validated factor, we used dynamic profile analysis and compared the expression level of genes of interest in absence of each finalized factor while others are present.
In the stage 1 recipe, each of the five finalized factors were removed while the other four factors were present and the expression levels of OTX2, DMBX1, FOXA2 and LMX1A was assessed compared to the levels in the presence of all five factors (FIGS. 11A-B). […] Expression level of DMBX1 increased in absence of LDN193189, however values of OTX2, FOXA2 and LMX1A decreased.

[4] = stage 2, first 12-factor experiment, dynamic profile
[5] = dynamic profile, Purmorphamine added to the original 4 effectors

C[C@H]1COCCN1c1cc(C2(S(=O)(=O)C3CC3)CC2)nc(-c2ccc(NC(=S)NCCO)cc2)n1 [AZD 3147]
FOXA2 expression level in absence of the factor [1]: almost no effect
LMX1A expression level in absence of the factor [1]: 2000

C/C(=C\c1ccc(C(=O)O)cc1)c1ccc2c(c1)C(C)(C)CCC2(C)C [TTNPB]
FOXA2 expression level in absence of the factor [2]: 0
LMX1A expression level in absence of the factor [2]: 15,000

O=C(NOC[C@H](O)CO)c1ccc(F)c(F)c1Nc1ccc(I)cc1F [PD0325901]
LMX1A expression level in absence of the factor [3]: 500
FOXA2 expression level in absence of the factor [3]: 700
DMBX1 expression level in absence of the factor [3]: 900

FGF8b
factor contribution ([1]; model optimized for maximum expression of FOXA2): 12.8
factor contribution ([1]; model optimized for maximum expression of LMX1A): 16.9

c1ccc2c(-c3cnn4cc(-c5ccc(N6CCNCC6)cc5)cnc34)ccnc2c1 [LDN193189]
LMX1A expression level in absence of the factor [3]: decreased
FOXA2 expression level in absence of the factor [3]: decreased
DMBX1 expression level in absence of the factor [3]: increased
OTX2 expression level in absence of the factor [3]: decreased

Cc1c[nH]c(-c2cnc(NCCNc3ccc(C#N)cn3)nc2-c2ccc(Cl)cc2Cl)n1 [CHIR99021]
LMX1A expression level in absence of the factor [3]: reduced
FOXA2 expression level in absence of the factor [3]: reduced
DMBX1 expression level in absence of the factor [3]: reduced
OTX2 expression level in absence of the factor [3]: reduced
impact on expression of GBX2 [2, 4]: increases
impact on expression of LMX1A [2, 4]: positive impacts

COc1cccc(Oc2cccc3nc(Nc4ccc(C(C)C)cc4)nc(N)c23)c1 [Yhhu 3792]
impact on expression of GBX2 [1]: positive effect

NC1(c2ccc(-c3nc4ccn5c(=O)[nH]nc5c4cc3-c3ccccc3)cc2)CCC1 [MK2206]
impact on expression of GBX2 [1]: desirable impact
FOXA2 expression level in absence of the factor [1]: reduced
LMX1A expression level in absence of the factor [1]: increasing
LMX1A expression level in absence of the factor [3]: stayed the same
FOXA2 expression level in absence of the factor [3]: stayed the same
DMBX1 expression level in absence of the factor [3]: 1500
OTX2 expression level in absence of the factor [3]: 9500

O=C(O)Cc1cccc(OCCCN(Cc2cccc(C(F)(F)F)c2Cl)CC(c2ccccc2)c2ccccc2)c1 [GW3965]
FOXA2 expression level in absence of the factor [2]: 17,000
LMX1A expression level in absence of the factor [2]: 10,000

c1ccc2c(Oc3nc(Nc4ccc(N5CCOCC5)cc4)c4ncn(C5CCCCC5)c4n3)cccc2c1 [Purmorphamine]
DMBX1 expression level [3, 5]: ~3000
LMX1A expression level [3, 5]: ~450
OTX2 expression level [3, 5]: ~11000
LMX1A expression level in absence of the factor [3]: beneficial
FOXA2 expression level in absence of the factor [3]: reduction
DMBX1 expression level in absence of the factor [3]: beneficial
OTX2 expression level in absence of the factor [3]: beneficial
expression level of FOXA2 without addition of the effector ([2]; dynamic profile analysis, stage 2): 5000

Cc1cccc(-c2nn(C(=S)Nc3ccccc3)cc2-c2ccnc3ccccc23)n1 [A 83-01]
FOXA2 expression level in absence of the factor [2]: 7000
LMX1A expression level in absence of the factor [2]: 40,000

B1: BMP7 (protein, UniProt P18075 293-431, looked up)
Bone morphogenetic protein 7: STGSKQRSQNRSKTPKNQEALRMANVAENSSSDQRQACKKHELYVSFRDLGWQDWIIAPEGYAAYYCEGECAFPLNSYMNATNHAIVQTLVHFINPETVPKPCCAPTQLNAISVLYFDDSSNVILKKYRNMVVRACGCH
notes: BMP pathway agonist
FOXA2 expression level in absence of the factor [1]: 0
LMX1A expression level in absence of the factor [1]: increasing
